Laboratory results reported in ChEMBL document CHEMBL1909046, “DrugMatrix in vitro pharmacology data”.

Columns and labels:
[1] = DRUGMATRIX: Phosphodiesterase PDE3 enzyme inhibition (substrate: [3H]cAMP + cAMP); assay type: tissue-based, Homo sapiens; details: platelet; Not Active = under 50% inhibition at 10 µM
[2] = target: Receptor tyrosine-protein kinase erbB-2 (Homo sapiens, UniProt P04626); assay: biochemical; assay type: cell-based, Insect cells; details: insect cells;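 note: inhibition of HER2 kinase enzyme activity, measured with Poly(Glu:Tyr) as the phosphorylation substrate; in other assays of this panel Not Active means under 50% inhibition at 10 µM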
[3] = target: T1, Receptor-type tyrosine-protein phosphatase C (Homo sapiens, UniProt P08575); set-up: species or system Escherichia coli;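 note: inhibition of CD45 enzyme activity measured using DiFMUP as substrate; in other assays of this panel Not Active means under 50% inhibition at 10 µM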
T1 sequence (P08575 whole entry): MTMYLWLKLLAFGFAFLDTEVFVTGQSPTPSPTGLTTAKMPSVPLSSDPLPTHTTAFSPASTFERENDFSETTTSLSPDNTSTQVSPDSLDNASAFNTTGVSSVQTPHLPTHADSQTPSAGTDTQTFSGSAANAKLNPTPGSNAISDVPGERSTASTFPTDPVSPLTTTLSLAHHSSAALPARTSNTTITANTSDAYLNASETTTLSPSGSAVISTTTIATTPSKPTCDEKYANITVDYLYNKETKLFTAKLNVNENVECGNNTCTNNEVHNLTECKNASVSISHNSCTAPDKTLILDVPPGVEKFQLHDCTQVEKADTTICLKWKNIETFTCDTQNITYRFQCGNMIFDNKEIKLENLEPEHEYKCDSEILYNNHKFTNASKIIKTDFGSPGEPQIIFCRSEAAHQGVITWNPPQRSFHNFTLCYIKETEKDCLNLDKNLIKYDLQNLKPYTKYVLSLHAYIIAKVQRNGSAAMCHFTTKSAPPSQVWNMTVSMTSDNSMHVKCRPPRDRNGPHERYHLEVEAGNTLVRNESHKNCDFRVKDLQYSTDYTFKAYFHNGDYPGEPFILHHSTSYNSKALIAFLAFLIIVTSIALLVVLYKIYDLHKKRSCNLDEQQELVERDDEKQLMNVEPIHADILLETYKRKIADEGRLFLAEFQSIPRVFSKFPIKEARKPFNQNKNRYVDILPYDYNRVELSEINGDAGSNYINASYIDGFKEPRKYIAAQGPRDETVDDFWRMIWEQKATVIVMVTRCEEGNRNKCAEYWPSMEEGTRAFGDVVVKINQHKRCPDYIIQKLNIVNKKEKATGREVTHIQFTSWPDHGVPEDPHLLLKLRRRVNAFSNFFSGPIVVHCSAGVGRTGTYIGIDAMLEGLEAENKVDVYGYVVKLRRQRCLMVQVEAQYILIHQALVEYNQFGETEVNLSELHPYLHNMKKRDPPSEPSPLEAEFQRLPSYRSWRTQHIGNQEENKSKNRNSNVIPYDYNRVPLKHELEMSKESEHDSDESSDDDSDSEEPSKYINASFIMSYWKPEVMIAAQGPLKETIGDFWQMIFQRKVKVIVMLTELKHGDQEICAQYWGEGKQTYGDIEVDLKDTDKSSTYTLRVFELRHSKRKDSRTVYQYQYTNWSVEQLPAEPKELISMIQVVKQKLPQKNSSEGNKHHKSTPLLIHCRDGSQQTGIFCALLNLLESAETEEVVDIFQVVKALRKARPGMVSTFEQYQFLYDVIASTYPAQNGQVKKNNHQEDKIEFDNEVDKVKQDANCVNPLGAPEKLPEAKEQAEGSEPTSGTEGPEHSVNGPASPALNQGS

Cytochrome P450 2D6 = Cytochrome P450 2D6 (Homo sapiens, UniProt P10635); details: bti-tn-5b1-4; note: in other assays of this panel Not Active means under 50% inhibition at 10 µM
Estrogen receptor = target: T2, Estrogen receptor (Homo sapiens, UniProt P03372); details: sf9; note: in other assays of this panel Not Active means under 50% inhibition at 10 µM
T2 sequence (P03372 whole entry): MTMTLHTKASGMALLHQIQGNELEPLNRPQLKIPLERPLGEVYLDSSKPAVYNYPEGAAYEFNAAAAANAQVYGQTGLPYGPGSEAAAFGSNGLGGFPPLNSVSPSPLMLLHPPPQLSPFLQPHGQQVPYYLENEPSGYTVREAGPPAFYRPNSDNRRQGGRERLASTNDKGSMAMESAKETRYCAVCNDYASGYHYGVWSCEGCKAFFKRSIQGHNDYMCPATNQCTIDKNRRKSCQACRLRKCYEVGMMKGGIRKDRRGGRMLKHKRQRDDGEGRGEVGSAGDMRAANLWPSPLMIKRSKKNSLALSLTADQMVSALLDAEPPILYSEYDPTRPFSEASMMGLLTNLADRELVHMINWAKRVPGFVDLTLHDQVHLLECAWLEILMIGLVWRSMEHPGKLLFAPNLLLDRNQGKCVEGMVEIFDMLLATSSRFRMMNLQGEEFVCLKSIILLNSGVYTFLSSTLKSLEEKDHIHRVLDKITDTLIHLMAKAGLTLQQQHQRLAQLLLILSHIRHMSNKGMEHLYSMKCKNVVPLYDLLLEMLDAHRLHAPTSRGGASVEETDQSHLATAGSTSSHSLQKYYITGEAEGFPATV

Insulin receptor = Insulin receptor (Rattus norvegicus, UniProt P15127); assay type: cell membranes, Wistar, Liver, Membrane; note: in other assays of this panel Not Active means under 50% inhibition at 10 µM
[4] = DRUGMATRIX: GABAA, Chloride Channel, TBOB radioligand binding (ligand: [3H] TBOB); assay type: cell membranes, Rattus norvegicus, Wistar, Cerebral cortex, Membrane; details: Not Active = under 50% inhibition at 10 µM
Melanocortin receptor 4 = Melanocortin receptor 4 (Homo sapiens, UniProt P32245); assay type: cell membranes, Membrane; details: hek293; note: in other assays of this panel Not Active means under 50% inhibition at 10 µM
Chain of Melanocortin receptor 4 (P32245 whole entry): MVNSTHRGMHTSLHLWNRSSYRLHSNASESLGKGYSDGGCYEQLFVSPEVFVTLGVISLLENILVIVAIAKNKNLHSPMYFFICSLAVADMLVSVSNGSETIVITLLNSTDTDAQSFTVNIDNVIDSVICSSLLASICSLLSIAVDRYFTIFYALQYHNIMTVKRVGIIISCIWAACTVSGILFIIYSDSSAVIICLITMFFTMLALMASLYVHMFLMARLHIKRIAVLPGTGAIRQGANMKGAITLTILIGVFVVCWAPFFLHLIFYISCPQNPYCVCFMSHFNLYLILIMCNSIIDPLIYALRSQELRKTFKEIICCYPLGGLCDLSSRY

Chain of Receptor tyrosine-protein kinase erbB-2 (P04626 whole entry): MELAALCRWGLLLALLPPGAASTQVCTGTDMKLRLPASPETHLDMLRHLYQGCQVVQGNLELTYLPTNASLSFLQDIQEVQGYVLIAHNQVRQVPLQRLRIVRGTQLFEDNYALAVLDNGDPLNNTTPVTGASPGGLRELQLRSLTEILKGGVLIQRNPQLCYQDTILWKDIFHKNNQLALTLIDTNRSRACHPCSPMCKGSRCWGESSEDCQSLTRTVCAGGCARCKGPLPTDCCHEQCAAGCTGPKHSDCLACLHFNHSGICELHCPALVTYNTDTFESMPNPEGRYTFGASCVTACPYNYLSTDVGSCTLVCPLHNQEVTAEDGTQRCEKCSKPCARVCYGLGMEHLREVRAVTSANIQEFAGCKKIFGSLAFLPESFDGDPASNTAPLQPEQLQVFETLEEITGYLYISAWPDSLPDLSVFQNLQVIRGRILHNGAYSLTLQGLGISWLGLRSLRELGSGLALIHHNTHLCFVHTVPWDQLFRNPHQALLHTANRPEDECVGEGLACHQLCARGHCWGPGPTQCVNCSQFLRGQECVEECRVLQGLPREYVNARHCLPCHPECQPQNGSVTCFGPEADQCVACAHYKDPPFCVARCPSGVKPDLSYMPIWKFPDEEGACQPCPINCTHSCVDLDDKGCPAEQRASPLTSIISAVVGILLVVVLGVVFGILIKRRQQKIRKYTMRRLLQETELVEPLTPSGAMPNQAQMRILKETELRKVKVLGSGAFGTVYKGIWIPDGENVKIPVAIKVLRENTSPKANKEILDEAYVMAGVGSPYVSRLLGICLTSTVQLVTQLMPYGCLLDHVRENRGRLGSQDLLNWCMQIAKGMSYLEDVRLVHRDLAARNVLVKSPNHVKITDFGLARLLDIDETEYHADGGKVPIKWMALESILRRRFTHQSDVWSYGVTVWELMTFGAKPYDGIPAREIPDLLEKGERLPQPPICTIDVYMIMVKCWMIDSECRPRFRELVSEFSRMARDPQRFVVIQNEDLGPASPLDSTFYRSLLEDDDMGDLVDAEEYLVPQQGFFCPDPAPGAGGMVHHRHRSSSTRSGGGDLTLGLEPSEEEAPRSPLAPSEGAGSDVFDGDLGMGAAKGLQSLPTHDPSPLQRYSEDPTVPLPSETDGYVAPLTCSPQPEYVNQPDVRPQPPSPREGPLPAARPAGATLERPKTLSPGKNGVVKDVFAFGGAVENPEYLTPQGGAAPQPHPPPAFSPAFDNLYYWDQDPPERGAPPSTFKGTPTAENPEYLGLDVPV
Chain of Cytochrome P450 2D6 (P10635 whole entry): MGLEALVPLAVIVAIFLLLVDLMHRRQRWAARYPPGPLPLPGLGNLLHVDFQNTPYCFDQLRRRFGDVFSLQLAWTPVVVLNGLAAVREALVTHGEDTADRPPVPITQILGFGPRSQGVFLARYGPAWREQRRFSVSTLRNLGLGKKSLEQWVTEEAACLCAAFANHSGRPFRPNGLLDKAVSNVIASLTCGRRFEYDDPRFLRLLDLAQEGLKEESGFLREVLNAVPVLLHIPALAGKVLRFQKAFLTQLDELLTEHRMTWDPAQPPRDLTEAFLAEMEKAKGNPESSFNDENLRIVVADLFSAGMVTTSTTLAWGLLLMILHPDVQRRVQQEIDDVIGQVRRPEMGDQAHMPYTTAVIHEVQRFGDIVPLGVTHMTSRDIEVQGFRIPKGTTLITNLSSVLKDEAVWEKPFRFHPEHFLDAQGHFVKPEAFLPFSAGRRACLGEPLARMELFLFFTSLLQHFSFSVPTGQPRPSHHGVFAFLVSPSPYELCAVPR
Chain of Insulin receptor (P15127 27-759 limits assumed): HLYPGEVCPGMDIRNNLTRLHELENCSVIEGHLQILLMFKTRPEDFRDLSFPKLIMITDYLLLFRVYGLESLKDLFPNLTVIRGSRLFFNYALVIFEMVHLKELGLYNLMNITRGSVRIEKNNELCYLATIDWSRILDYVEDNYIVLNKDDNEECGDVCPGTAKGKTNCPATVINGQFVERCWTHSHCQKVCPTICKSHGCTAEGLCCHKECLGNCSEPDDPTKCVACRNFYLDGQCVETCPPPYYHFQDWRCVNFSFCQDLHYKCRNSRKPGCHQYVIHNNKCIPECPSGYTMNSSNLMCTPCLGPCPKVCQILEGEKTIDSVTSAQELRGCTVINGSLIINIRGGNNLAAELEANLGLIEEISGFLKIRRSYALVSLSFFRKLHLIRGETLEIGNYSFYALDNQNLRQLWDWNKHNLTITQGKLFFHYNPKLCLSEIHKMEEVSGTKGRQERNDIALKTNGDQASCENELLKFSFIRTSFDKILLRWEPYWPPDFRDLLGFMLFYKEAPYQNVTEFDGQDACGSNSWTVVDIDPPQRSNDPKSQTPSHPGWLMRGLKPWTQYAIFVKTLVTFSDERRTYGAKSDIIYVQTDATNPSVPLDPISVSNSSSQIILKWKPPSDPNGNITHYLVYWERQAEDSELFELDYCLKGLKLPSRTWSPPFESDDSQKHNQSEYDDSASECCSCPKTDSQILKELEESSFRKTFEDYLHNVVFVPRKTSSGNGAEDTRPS
Chain of Insulin receptor (P15127 764-1383 limits assumed): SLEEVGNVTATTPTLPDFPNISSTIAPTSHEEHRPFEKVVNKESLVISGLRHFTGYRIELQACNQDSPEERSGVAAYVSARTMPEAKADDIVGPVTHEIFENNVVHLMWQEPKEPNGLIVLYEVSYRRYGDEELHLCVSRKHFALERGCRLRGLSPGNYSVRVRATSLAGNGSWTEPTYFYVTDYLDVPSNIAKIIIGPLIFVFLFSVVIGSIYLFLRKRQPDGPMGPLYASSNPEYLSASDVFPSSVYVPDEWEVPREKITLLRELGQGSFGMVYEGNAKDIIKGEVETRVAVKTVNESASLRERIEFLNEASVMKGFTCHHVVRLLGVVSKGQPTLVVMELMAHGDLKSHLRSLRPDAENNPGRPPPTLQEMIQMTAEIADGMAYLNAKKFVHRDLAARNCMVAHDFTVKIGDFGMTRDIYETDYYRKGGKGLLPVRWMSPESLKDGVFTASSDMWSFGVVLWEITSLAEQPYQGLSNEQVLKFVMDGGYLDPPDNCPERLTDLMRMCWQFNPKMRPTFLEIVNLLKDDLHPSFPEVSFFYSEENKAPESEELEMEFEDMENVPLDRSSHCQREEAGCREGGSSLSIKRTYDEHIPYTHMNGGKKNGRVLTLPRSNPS

O=c1[nH]c(=O)n([C@H]2C[C@H](O)[C@@H](CO)O2)cc1F [FLOXURIDINE]
Not Active: IC50 [1] | Ki [1] | IC50 [2] | IC50 [3] | IC50 (Cytochrome P450 2D6) | Ki (Cytochrome P450 2D6) | IC50 (Estrogen receptor) | IC50 (Insulin receptor) | IC50 [4] | Ki [4] | IC50 (Melanocortin receptor 4)

COC(=O)Nc1nc2cc(C(=O)c3ccc(F)cc3)ccc2[nH]1 [FLUBENDAZOLE]
Not Active: IC50 [1] | Ki [1] | IC50 [2] | IC50 [3] | IC50 (Cytochrome P450 2D6) | Ki (Cytochrome P450 2D6) | IC50 (Estrogen receptor) | IC50 (Insulin receptor) | IC50 [4] | Ki [4] | IC50 (Melanocortin receptor 4)

CC(=O)OCC(=O)[C@@]1(O)CC[C@H]2[C@@H]3CCC4=CC(=O)CC[C@]4(C)[C@@]3(F)[C@@H](O)C[C@@]21C [FLUDROCORTISONE ACETATE]
Not Active: IC50 [1] | Ki [1] | IC50 [2] | IC50 [3] | IC50 (Cytochrome P450 2D6) | Ki (Cytochrome P450 2D6) | IC50 (Estrogen receptor) | IC50 (Insulin receptor) | IC50 [4] | Ki [4] | IC50 (Melanocortin receptor 4)

CCOC(=O)c1ncn2c1CN(C)C(=O)c1cc(F)ccc1-2 [FLUMAZENIL]
Not Active: IC50 [1] | Ki [1] | IC50 [2] | IC50 [3] | IC50 (Cytochrome P450 2D6) | Ki (Cytochrome P450 2D6) | IC50 (Estrogen receptor) | IC50 (Insulin receptor) | IC50 [4] | Ki [4] | IC50 (Melanocortin receptor 4)

Cc1ccc(C)c(OCCCC(C)(C)C(=O)O)c1 [GEMFIBROZIL]
Not Active: IC50 [1] | Ki [1] | IC50 [2] | IC50 [3] | IC50 (Cytochrome P450 2D6) | Ki (Cytochrome P450 2D6) | IC50 (Estrogen receptor) | IC50 (Insulin receptor) | IC50 [4] | Ki [4] | IC50 (Melanocortin receptor 4)

CCC1=C(C)CN(C(=O)NCCc2ccc(S(=O)(=O)NC(=O)N[C@H]3CC[C@H](C)CC3)cc2)C1=O [GLIMEPIRIDE]
Not Active: IC50 [1] | Ki [1] | IC50 [2] | IC50 [3] | IC50 (Cytochrome P450 2D6) | Ki (Cytochrome P450 2D6) | IC50 (Estrogen receptor) | IC50 (Insulin receptor) | IC50 [4] | Ki [4] | IC50 (Melanocortin receptor 4)

Nc1cc(-c2ccncc2)c[nH]c1=O [INAMRINONE]
Not Active: IC50 [1] | Ki [1] | IC50 [2] | IC50 [3] | IC50 (Cytochrome P450 2D6) | Ki (Cytochrome P450 2D6) | IC50 (Estrogen receptor) | IC50 (Insulin receptor) | IC50 [4] | Ki [4] | IC50 (Melanocortin receptor 4)

CCCCC1=NC2(CCCC2)C(=O)N1Cc1ccc(-c2ccccc2-c2nnn[nH]2)cc1 [IRBESARTAN]
Not Active: IC50 [1] | Ki [1] | IC50 [2] | IC50 [3] | IC50 (Cytochrome P450 2D6) | Ki (Cytochrome P450 2D6) | IC50 (Estrogen receptor) | IC50 (Insulin receptor) | IC50 [4] | Ki [4] | IC50 (Melanocortin receptor 4)
